A short description of this data set: Stability of the product at 40° C. / 75% RH (ferric citrate assay and ferric assay by titration). Type of data set: physicochemical. As to conditions: Temperature 40° C. ± 2° C., Humidity 75% ± 5% RH. As for the experimental part: 1.1.3. Stability of the Product
0.5 g of ferric citrate, accurately weighed, in 100 mL of water and 5 mL of hydrochloric acid were added in a flask on a water bath until dissolved. 3 g of potassium iodide and 5 mL of hydrochloric acid were added to the flask to form a mixture, and a stopper was inserted in the flask. The mixture was allowed to stand for 15 minutes, and the librated iodine was titrated with 0.1 N sodium thiosulfate solution using a starch test solution as an indicator. A blank test was performed with the same quantities of reagents and in the same manner, and corrections were made if necessary. Each milliliter of 0.1 N sodium thiosulfate is equivalent to 24.496 mg of FeC6H5O7 and each milliliter of 0.1 N sodium thiosulfate is equivalent to 5.585 mg of Iron(III).

On to ferric citrate [FeC6H5O7 product], for which the Ferric assay (1st month) was determined as 17.68%; the Ferric assay (2nd month) came to 17.66%; the Ferric assay (3rd month) came out at 17.70%; the Ferric assay (6th month) worked out at 17.81%; the Ferric assay (Initial) came to 17.69%. The same substance showed a Ferric citrate assay (1st month) of 99.65%; a Ferric citrate assay (2nd month) of 99.58%; a Ferric citrate assay (3rd month) of 99.79%; a Ferric citrate assay (6th month) of 100.37%; a Ferric citrate assay (Initial) of 99.70%.
